Results reported in patent US20230287343A1, “METHOD FOR GENERATING A THREE-DIMENSIONAL NEUROMUSCULAR ORGANOID IN VITRO” (MAX-DELBRÜCK-CENTRUM FÜR MOLEKULARE MEDIZIN IN DER …, priority 2020, published 2023).
“Also recorded” adds a separate entry of the source.

Key:
[1] = test system: neuromuscular organoids (NMOs); test: Microelectrode array (MEA) recording of NMO electrical activity; format: cell-based, human; details: for suppression of electrical activity: APV 50 uM and CNQX 40 uM applied together; for local (single electrode) firings / synchronous network activity (paired electrode spikes): NMDA and 5-HT stimulation at day 50; for rhythmic activity (central pattern generator-like): NMDA/5-HT cocktail; for activity triggered by the drugs (fictive locomotion paradigm): cocktail of NMDA (10 uM) and 5-HT (40 uM)
[2] = test system: neuromuscular organoids (NMOs); test: Contractile activity of NMOs before and after curare; format: cell-based, human; details: curare 10 uM, before and after treatment
Experimental: Video segments of equal length were recorded using a bright-field microscope (DMI1, Leica) in 3 different regions of the same organoid using 20× zoom. To quantify muscle contractions, each movie was analyzed separately where each visible contraction was counted and then averaged for the whole organoid.
To analyze and map organoid muscular contraction, bright field time series images were automatically thresholded using ImageJ software to identify organoid border. A binary stack was created and contractile regions were visually identified. Regions of interest were defined and variations of organoid area (in pixel), used as a proxy of physical contraction, were plotted over the time series.

N#Cc1cc2[nH]c(=O)c(=O)[nH]c2cc1[N+](=O)[O-] [CNQX]
suppression of electrical activity [1]: reversibly suppressed nearly all electrical activity

NC1=N[C@H](O)[C@H]2[C@H]3O[C@]4(O)O[C@@H]([C@@H](O)[C@@]2(N1)[C@@H]4O)[C@]3(O)CO [tetrodotoxin]
suppression of NMDA/5-HT triggered activity [1]: reversibly suppressed

NCCc1c[nH]c2ccc(O)cc12 [5-HT, Serotonin]
local (single electrode) firings [1]: increased single firings; also recorded: notable increase of local firings
synchronous network activity (paired electrode spikes) [1]: increase in paired electrode spikes; also recorded: dramatic increase of synchronous network activity
rhythmic activity (central pattern generator-like) ([1]; day 50 NMOs): activity became rhythmic; also recorded: produced rhythmic bursts of electrical activity
activity triggered by the drugs (fictive locomotion paradigm) [1]: instantaneously triggered strong activity

curare
block of acetylcholine-stimulated electrical activity ([1]; curare 10 uM, day 50 NMOs): rapidly and reversibly blocked
contraction of the skeletal muscles (contractile activity of NMOs) [2]: blocked the contraction of the skeletal muscles; also recorded: organoid relaxation

CN[C@H](CC(=O)O)C(=O)O [NMDA]
local (single electrode) firings [1]: increased single firings; also recorded: notable increase of local firings
synchronous network activity (paired electrode spikes) [1]: increase in paired electrode spikes; also recorded: dramatic increase of synchronous network activity
rhythmic activity (central pattern generator-like) ([1]; day 50 NMOs): activity became rhythmic; also recorded: produced rhythmic bursts of electrical activity
activity triggered by the drugs (fictive locomotion paradigm) [1]: instantaneously triggered strong activity

N[C@@H](CCCP(=O)(O)O)C(=O)O [APV]
suppression of electrical activity [1]: reversibly suppressed nearly all electrical activity

N[C@@H](CCC(=O)O)C(=O)O [glutamate]
increase of spontaneous activity ([1]; acute glutamate 50 uM, day 30 and day 50 organoids): approximately 12 fold
